{"source": "patent US20030165853A1", "about": "“Antisense imaging of gene expression of the brain in vivo” (The Regents of the University of California Office of …, priority 2000, published 2003)", "key": {"[1]": {"settings": "mouse, in vivo, iv", "experimental": "(§1) Adult male BALB/c mice were divided into 5 groups of 3 mice each for the pharmacokinetic study. The mice were anesthetized with an intraperitoneal injection of ketamine (100 mg/kg) and xylazine (2 mg/kg). The injection solution contained 5 μCi of [^125I]-HD-PNA with or without conjugation to 2 μg of 8D3-SA in 0.01 M PBS/pH 7.4, and a total volume of 50 μl was administered via the jugular vein of each mouse. Groups of 3 mice each were sacrificed at 0.25, 2, 5, 15, and 60 min after the isotope injection and arterial blood was sampled from the aorta. After spinning the blood samples, the collected supernatant (serum) was counted for [^125I]-radioactivity using a γ-counter (Beckman Instruments, Inc., Fullerton, Calif.). An aliquot of serum was precipitated with cold 10% TCA, and the fraction of total serum radioactivity that was TCA precipitated was determined. The brain and peripheral organs (liver, kidney, heart, lung, and spleen) were removed from each mouse at 60 min after the isotope administration and total [^125I]-radioactivity in the organ was measured.\nPharmacokinetic parameters were determined by fitting the serum TCA-precipitable radioactivity data to a biexponential equation with a weighting factor of [1/A(t)]^2 using a derivative-free nonlinear regression analysis (PARBMDP, Biomedical Computer P-Series, developed at UCLA Health Science Computing Facilities).\nwhere A(t)=% injected dose (ID)/ml serum at a given time (t)."}, "[2]": {"settings": "mouse, in vivo", "experimental": "as §1\nThe organ permeability-surface area (PS) product of either the unconjugated [^125I]-HD-PNA, or the [^125I]-HD-PNA conjugated to 8D3/SA, was calculated as follows: [formula] […]\nThe brain delivery of the compound was expressed as percentage of injected dose (ID)/g brain, and was calculated as follows: […]"}, "[3]": {"system": "human HD exon 1", "test": "Translation arrest (combined in vitro transcription/translation of HD exon 1)", "assay_type": "biochemical", "settings": "5-50 μM antisense agent, [3H]-leucine incorporation", "experimental": "The hybridization of the antisense HD-PNA to the HD transcript was determined using a combination of transcription and translation that mimics in vivo conditions as previously described (Boado et al. (2000) J. Pharmacol. Exp. Ther., 295: 239-243). The cDNA containing the human HD exon 1 was sublconed into the Bluescript KS+plasmid, between either T3 or T7 RNA polymerase promoters, and this plasmid is designated clone 839, as described previously (Id). Transcription/translation of human HD exon 1 clone 839 was performed with 0.2 μg clone 839 plasmid DNA in the presence of T3 RNA polymerase, 5 μCi [^3H]-leucine, and 50% v/v rabbit reticulocyte lysate using the T3-TNT translation system (Promega, Madison, Wis.), as described previously (Id). Dose response studies with newly synthesized PNAs were performed and compared with a positive control antisense phosphodiester-ODN, designated ODN-III, as described (Id). Samples were incubated for 30 min at 30 ° C., and incorporation of [^3H]-leucine into HD exon 1 protein was analyzed by trichloroacetic acid (TCA) precipitation, and data expressed as percent of control, which lacked any added PNA or ODN. The HD exon 1 insert is 10% of the total plasmid, or about […] per 12.5 μL reaction. Since the TNT produces 10-30 RNA copies per plasmid, the final concentration of the HD RNA in the TNT reaction is approximately 1 μM. […]"}, "[4]": {"system": "HD mRNA", "test": "HD RNase protection assay", "assay_type": "binding, human", "settings": "RNase T1/A digestion, PAGE autoradiography", "experimental": "The sense RNA was synthesized with T3 RNA polymerase following linearization of the plasmid with EcoRI. The transcribed RNA was radiolabeled with [^32Pα]ATP to a specific activity of 0.22 μCi/pmol, as previously described (Boado and Pardridge (1994) Bioconj. Chem., 6: 406-410). For the RNAse protection assay, 0.6 pmol of biotinylated HD-PNA or biotinylated luciferase-PNA, with or without conjugation to 6.4 pmol of MAb-SA, was added to 10^5 CPM of [^32P]-labeled sense HD RNA (0.2 pmol) in 3 μl buffer (80 mM NaCl, 7 mM phosphate buffer, pH=7.5, 0.1% BSA), and annealed for 30 minutes at 42° C. Then 20 units RNAse Ti and 2.5 μg RNAse A were added to the samples in 17 μl of RNAse digestion buffer (0.3 M NaCl, 10 mM TRIS pH=7.5, 4 mM EDTA, 0.02% tRNA, 0.02% BSA) and incubated for 30 min at 37° C. RNA fragments were analyzed by 7 M urea/20% polyacrylamide gel electrophoresis following by autoradiography as described by Pardridge et al. (1995) Proc. Natl. Acad. Sci., USA, 92:5592-5596. Labeled RNA and PNAs were heat denatured for 2 minutes at 95° C. and then incubated on ice for 2 minutes immediately before the experiment or conjugation to MAb-SA."}}}
{"substance": "[^125I]-PNA: biotinylated 16-mer PNA complementary to nucleotides −1 to +15 of human HD exon 1, Tyr-Lys, amidated carboxyl terminus; radioiodinated (CTTCCATTTTACCAAC; all peptide nucleic acid (PNA); biotinylated, Tyr-Lys added, amidated C-terminus, radioiodinated, positions not given here)", "values": [{"measurement": "A1", "setting": "[1]", "value": "32 ± 2", "unit": "% ID/ml"}, {"measurement": "A2", "setting": "[1]", "value": "6.3 ± 0.7", "unit": "% ID/ml"}, {"measurement": "AUC (60 min)", "setting": "[1]", "value": "308 ± 36", "unit": "% ID · min/ml"}, {"measurement": "AUC (∞)", "setting": "[1]", "value": "399 ± 49", "unit": "% ID · min/ml"}, {"measurement": "K1", "setting": "[1]", "value": "0.37 ± 0.04", "unit": "min⁻¹"}, {"measurement": "K2", "setting": "[1]", "value": "0.0206 ± 0.0014", "unit": "min⁻¹"}, {"measurement": "VSS", "setting": "[1]", "value": "374 ± 42", "unit": "mL/kg"}, {"measurement": "t½^1", "setting": "[1]", "value": "1.9 ± 0.2", "unit": "min"}, {"measurement": "t½^2", "setting": "[1]", "value": "34 ± 3", "unit": "min"}, {"measurement": "BBB PS product", "setting": "[2]", "value": "< 0.3", "unit": "µL/min/g"}, {"measurement": "inhibition of cell free translation of HD exon 1 protein", "setting": "[3]", "value": "inhibits the cell free translation"}, {"measurement": "hybridization to HD mRNA (RNase protected fragment)", "setting": "[4]", "value": "specifically hybridizes to the target mRNA"}]}
